# Experimental data taken from ChEMBL document CHEMBL1201862, “PubChem BioAssay data set” (2004).
#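 Tested at 5 concentrations; 48 h exposure; 96-well plates; endpoints linearly interpolated, else capped at highest concentration. GI50: concentration for 50% inhibition of growth.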 The source made the active and inactive calls. No stated cut-off is given here; in the data, active = GI50 up to about 1.1 µM and inactive = higher.
# Legend:
# Experiment in all cases: NCI-60 cell line screen, 48 h
# ACHN = system: ACHN
# CCRF-CEM = system: CCRF-CEM
# COLO 205 = system: COLO 205
# HCT-116 = system: HCT-116
# LOX IMVI = system: LOX IMVI
# NCI-H23 = system: NCI-H23
# OVCAR-3 = system: OVCAR-3
# OVCAR-8 = system: OVCAR-8
# RPMI-8226 = system: RPMI-8226
# CAKI-1 = system: CAKI-1
# KM12 = system: KM12
# Malme-3M = system: Malme-3M
# NCI-H522 = system: NCI-H522
# SF-268 = system: SF-268
# UO-31 = system: UO-31
SMILES,GI50 (ACHN),GI50 (CCRF-CEM),GI50 (COLO 205),GI50 (HCT-116),GI50 (LOX IMVI),GI50 (NCI-H23),GI50 (OVCAR-3),GI50 (OVCAR-8),GI50 (RPMI-8226),GI50 (CAKI-1),GI50 (KM12),GI50 (Malme-3M),GI50 (NCI-H522),GI50 (SF-268),GI50 (UO-31)
C/C(=N\N=C(\N)S)c1ccc(Oc2ccccc2)cc1,10.3 µM (inactive),5.04 µM (inactive),8.36 µM (inactive),10.2 µM (inactive),13.5 µM (inactive),11.8 µM (inactive),10.1 µM (inactive),11.7 µM (inactive),1.78 µM (inactive),,,,,,
O=c1ncc(F)cn1C1OC(CO)C(O)C1O (stereo not given),> 44 µM (inactive),14.7 µM (inactive),> 24.6 µM (inactive),24.4 µM (inactive),16.7 µM (inactive),> 100 µM (inactive),> 26.7 µM (inactive),> 27.7 µM (inactive),15.1 µM (inactive),15.5 µM (inactive),> 30.5 µM (inactive),> 29.8 µM (inactive),> 32.7 µM (inactive),> 23.9 µM (inactive),> 100 µM (inactive)
[O-][S+]1c2ccccc2N=C(c2ccc3ccccc3c2)CC1c1ccccc1 (stereo not given),16.4 µM (inactive),31.8 µM (inactive),19.1 µM (inactive),19.1 µM (inactive),21.1 µM (inactive),17.9 µM (inactive),,16.4 µM (inactive),29.6 µM (inactive),25.1 µM (inactive),13.9 µM (inactive),,18.2 µM (inactive),18.2 µM (inactive),18.4 µM (inactive)
Cc1ccc2nc(NC(=O)C(=O)CC(=O)c3cccc4ccccc34)sc2c1,41.9 µM (inactive),30.8 µM (inactive),60.4 µM (inactive),,32.2 µM (inactive),50.8 µM (inactive),19.9 µM (inactive),23.4 µM (inactive),91.8 µM (inactive),22.2 µM (inactive),29.1 µM (inactive),27 µM (inactive),,32.6 µM (inactive),> 100 µM (inactive)
O=C(C#Cc1ccccc1)Nc1ccccc1CC(c1c[nH]c2ccccc12)c1c[nH]c2ccccc12,,3.3 µM (inactive),18.2 µM (inactive),,7.43 µM (inactive),15.4 µM (inactive),9.44 µM (inactive),8.32 µM (inactive),3.52 µM (inactive),16.9 µM (inactive),14.7 µM (inactive),25.6 µM (inactive),11.6 µM (inactive),25.4 µM (inactive),13.5 µM (inactive)
O=C1c2cccc3cc([N+](=O)[O-])cc(c23)C(=O)N1CCCN1CCN(CCCN2C(=O)c3cccc4cc([N+](=O)[O-])cc(c34)C2=O)CC1,< 0.01 µM (active),0.0803 µM (active),0.108 µM (active),< 0.01 µM (active),0.0234 µM (active),0.859 µM (active),1.09 µM (active),< 0.01 µM (active),0.0887 µM (active),0.0293 µM (active),0.063 µM (active),0.571 µM (active),,,0.0695 µM (active)
O=C(O)CNCc1c2ccccc2[n+]([O-])c2ccccc12,57.4 µM (inactive),34.3 µM (inactive),> 100 µM (inactive),20.2 µM (inactive),36.6 µM (inactive),69.3 µM (inactive),> 100 µM (inactive),80.5 µM (inactive),30.8 µM (inactive),> 100 µM (inactive),51.1 µM (inactive),> 100 µM (inactive),46.1 µM (inactive),43.8 µM (inactive),21.1 µM (inactive)
COc1ccc(OC)c(NC(=O)C2=C(C)NC(C)=C(C(=O)Nc3cc(OC)ccc3OC)C2c2ccco2)c1,> 100 µM (inactive),> 100 µM (inactive),> 100 µM (inactive),> 100 µM (inactive),,> 100 µM (inactive),> 100 µM (inactive),> 100 µM (inactive),63 µM (inactive),89.5 µM (inactive),> 100 µM (inactive),> 100 µM (inactive),> 100 µM (inactive),> 100 µM (inactive),> 100 µM (inactive)
CC12OC(=O)C(C#N)C1(C)C1C(=O)CCCC12 (stereo not given),> 100 µM (inactive),> 100 µM (inactive),> 100 µM (inactive),> 100 µM (inactive),> 100 µM (inactive),> 100 µM (inactive),> 100 µM (inactive),> 100 µM (inactive),> 100 µM (inactive),,> 100 µM (inactive),> 100 µM (inactive),,> 100 µM (inactive),> 100 µM (inactive)
C/C=C(\C)C(=O)N1c2ccccc2CC1c1c(C)[nH]c2ccccc12 (stereo not given),55.8 µM (inactive),42.5 µM (inactive),23.3 µM (inactive),86.9 µM (inactive),> 100 µM (inactive),55.2 µM (inactive),21.5 µM (inactive),83.8 µM (inactive),25.3 µM (inactive),48.8 µM (inactive),26.7 µM (inactive),32 µM (inactive),42.3 µM (inactive),,36.1 µM (inactive)
C[C@]12CC[C@H](O)CC1=CC[C@@H]1C2CC[C@]2(C)C(=O)N(N)C(=O)CC12 (stereo not given in full),> 100 µM (inactive),> 100 µM (inactive),> 100 µM (inactive),> 100 µM (inactive),> 100 µM (inactive),> 100 µM (inactive),> 100 µM (inactive),> 100 µM (inactive),> 100 µM (inactive),> 100 µM (inactive),> 100 µM (inactive),> 100 µM (inactive),> 100 µM (inactive),> 100 µM (inactive),> 100 µM (inactive)
N/C(=C\c1ccc(OCc2ccccc2)c(OCc2ccccc2)c1[N+](=O)[O-])C(=O)O,> 100 µM (inactive),> 100 µM (inactive),> 100 µM (inactive),> 100 µM (inactive),> 100 µM (inactive),> 100 µM (inactive),> 100 µM (inactive),> 100 µM (inactive),> 100 µM (inactive),,> 100 µM (inactive),> 100 µM (inactive),> 100 µM (inactive),> 100 µM (inactive),> 100 µM (inactive)
COc1cc2c3c(c1OCc1ccccc1)NCCC3NCC2 (stereo not given),,> 100 µM (inactive),> 100 µM (inactive),> 100 µM (inactive),> 100 µM (inactive),> 100 µM (inactive),> 100 µM (inactive),> 100 µM (inactive),> 100 µM (inactive),> 100 µM (inactive),> 100 µM (inactive),> 100 µM (inactive),> 100 µM (inactive),> 100 µM (inactive),51.6 µM (inactive)
CCN(CC)c1ccc(C2N3CCCCC3[C@@H]3c4[nH]c5ccccc5c4CCN23)cc1 (stereo not given in full),27 µM (inactive),16.3 µM (inactive),27.4 µM (inactive),16.1 µM (inactive),,34.9 µM (inactive),23.9 µM (inactive),35.3 µM (inactive),12.8 µM (inactive),74.3 µM (inactive),,24.2 µM (inactive),,22.1 µM (inactive),27 µM (inactive)
CCCCN(CCCC)CC(C(=O)Nc1ccc([N+](=O)[O-])cc1[N+](=O)[O-])/C(C)=N\NC(=S)NN (stereo not given),56.6 µM (inactive),49.4 µM (inactive),> 100 µM (inactive),> 100 µM (inactive),> 100 µM (inactive),> 100 µM (inactive),84.3 µM (inactive),> 100 µM (inactive),50.1 µM (inactive),,> 100 µM (inactive),> 100 µM (inactive),25.5 µM (inactive),> 100 µM (inactive),26.9 µM (inactive)
Cc1ccc(O)c(/N=N/c2ccc(S(=O)(=O)O)cc2)n1,> 100 µM (inactive),> 100 µM (inactive),> 100 µM (inactive),> 100 µM (inactive),> 100 µM (inactive),> 100 µM (inactive),,> 100 µM (inactive),> 100 µM (inactive),> 100 µM (inactive),,,> 100 µM (inactive),> 100 µM (inactive),> 100 µM (inactive)
COc1cc(C2c3cc4c(cc3[C@@H](NCCN3CCCCC3)C3COC(=O)[C@H]23)OCO4)cc(OC)c1O (stereo not given in full),0.486 µM (active),0.0378 µM (active),1.01 µM (active),1.15 µM (inactive),0.237 µM (active),0.206 µM (active),0.78 µM (active),0.718 µM (active),0.277 µM (active),0.0918 µM (active),1.01 µM (active),0.29 µM (active),,0.346 µM (active),0.41 µM (active)
COC(=O)CC(C(C(=O)OC)C(=O)OC)N1C(=O)OC(c2ccccc2)C1c1ccccc1 (stereo not given),> 100 µM (inactive),63.1 µM (inactive),86.9 µM (inactive),95.9 µM (inactive),38.9 µM (inactive),> 100 µM (inactive),> 100 µM (inactive),> 100 µM (inactive),45.6 µM (inactive),19.3 µM (inactive),> 100 µM (inactive),> 100 µM (inactive),69.5 µM (inactive),> 100 µM (inactive),> 100 µM (inactive)
Cc1c(O)c(=O)ccn1CCO,> 100 µM (inactive),> 100 µM (inactive),> 100 µM (inactive),> 100 µM (inactive),> 100 µM (inactive),,> 100 µM (inactive),> 100 µM (inactive),> 100 µM (inactive),> 100 µM (inactive),> 100 µM (inactive),> 100 µM (inactive),> 100 µM (inactive),> 100 µM (inactive),> 100 µM (inactive)
Cc1c(O)c(=O)ccn1CCN,> 100 µM (inactive),> 100 µM (inactive),> 100 µM (inactive),> 100 µM (inactive),> 100 µM (inactive),> 100 µM (inactive),,> 100 µM (inactive),> 100 µM (inactive),> 100 µM (inactive),> 100 µM (inactive),> 100 µM (inactive),> 100 µM (inactive),> 100 µM (inactive),> 100 µM (inactive)
